Data set [1] is described as follows: The drug is tested on Bacteroides uniformis strain: ATCC8492 for biotransformation. The drug concentrations were measured before and after a 12-h incubation by liquid-chromatography-coupled mass spectrometry (LC–MS). As to conditions: 2 µM.
The nature of data set [2]: The drug is tested on Anaerococcus hydrogenalis strain: DSM7454 for biotransformation. The drug concentrations were measured before and after a 12-h incubation by liquid-chromatography-coupled mass spectrometry (LC–MS). The note with it: 2 µM.
For data set [3] the following is noted: bacteroides eggerthii, 12 h, 2 µM.
Description: The drug is tested on Bacteroides eggerthii strain: DSM20697 for biotransformation. The drug concentrations were measured before and after a 12-h incubation by liquid-chromatography-coupled mass spectrometry (LC–MS)
The conditions of data set [4]: bacteroides fragilis, 12 h, 2 µM.
Description: The drug is tested on Bacteroides fragilis strain: DS-208 for biotransformation. The drug concentrations were measured before and after a 12-h incubation by liquid-chromatography-coupled mass spectrometry (LC–MS)
The conditions of data set [5]: bacteroides thetaiotaomicron, 12 h, 2 µM.
Description: The drug is tested on Bacteroides thetaiotaomicron strain: 7330 for biotransformation. The drug concentrations were measured before and after a 12-h incubation by liquid-chromatography-coupled mass spectrometry (LC–MS)
The nature of data set [6]: The drug is tested on Eggerthella lenta strain: ATCC25559 for biotransformation. The drug concentrations were measured before and after a 12-h incubation by liquid-chromatography-coupled mass spectrometry (LC–MS). The note with it: 2 µM.

`Nc1nnc(-c2cccc(Cl)c2Cl)c(N)n1` [LAMOTRIGINE]: the “Bacterial Biotransformation” value in data set [1], in data set [2], in data set [3] and in data set [4] was “Compound NOT metabolized” throughout.

With `Nc1nc(N)nc(-c2cc(Cl)ccc2Cl)n1.O=C(O)/C=C\C(=O)O` [IRSOGLADINE MALEATE], the “Bacterial Biotransformation” value in data set [1], in data set [2], in data set [3], in data set [4] and in data set [5] was “Compound NOT metabolized” in each case.

Regarding `Br.COc1ccc2c(c1)[C@]13CCCC[C@@H]1[C@H](C2)N(C)CC3.O` [DEXTROMETHORPHAN HYDROBROMIDE], the “Bacterial Biotransformation” value in data set [1], in data set [2], in data set [3], in data set [4] and in data set [5] was “Compound NOT metabolized” in each case.

In the case of `COc1ccc2c3c1O[C@H]1C[C@@H](O)C=C[C@@]31CCN(C)C2` [GALANTAMINE], the “Bacterial Biotransformation” value is listed as “Compound metabolized” in data set [1]; “Compound NOT metabolized” in data set [2]; “Compound metabolized” in data set [3]; “Compound metabolized” in data set [4]; “Compound metabolized” in data set [5].

Consider `CN1C(=O)CC(C)(c2ccccc2)C1=O` (configuration not stated) [METHSUXIMIDE], for which the “Bacterial Biotransformation” value in data set [1], in data set [2], in data set [3], in data set [4] and in data set [5] was “Compound NOT metabolized” in each case.

In the case of `O=C1[C@H](CC[C@H](O)c2ccc(F)cc2)[C@@H](c2ccc(O)cc2)N1c1ccc(F)cc1` [EZETIMIBE], the “Bacterial Biotransformation” value in data set [1] is given as “Compound metabolized”; in data set [2], “Compound NOT metabolized”; in data set [3] it was “Compound NOT metabolized”; in data set [4], “Compound NOT metabolized”; in data set [5], “Compound NOT metabolized”.

`CC(C)[C@H]1CC[C@H](C(=O)N[C@H](Cc2ccccc2)C(=O)O)CC1` [NATEGLINIDE]: the “Bacterial Biotransformation” value was “Compound metabolized” in data set [1]; “Compound NOT metabolized” in data set [2]; “Compound NOT metabolized” in data set [3]; “Compound metabolized” in data set [4]; “Compound NOT metabolized” in data set [5].

For the compound `CN(C)CC(c1ccc(O)cc1)C1(O)CCCCC1.O=C(O)CCC(=O)O` (configuration not stated) [DESVENLAFAXINE SUCCINATE], the “Bacterial Biotransformation” value in data set [6], in data set [1], in data set [2], in data set [3] and in data set [4] was “Compound NOT metabolized” throughout.

Turning to `COCCc1ccc(OCC(O)CNC(C)C)cc1.COCCc1ccc(OCC(O)CNC(C)C)cc1.O=C(O)C(O)C(O)C(=O)O` (configuration not stated) [METOPROLOL TARTRATE], the “Bacterial Biotransformation” value in data set [6], in data set [1], in data set [2], in data set [3] and in data set [4] was “Compound NOT metabolized” throughout.

On to `O=C(O)CCc1nc(-c2ccccc2)c(-c2ccccc2)o1` [OXAPROZIN], for which the “Bacterial Biotransformation” value is on record as “Compound metabolized” in data set [1]; “Compound NOT metabolized” in data set [2]; “Compound NOT metabolized” in data set [3]; “Compound metabolized” in data set [4]; “Compound metabolized” in data set [5].

Consider `CN1CCN2c3ccccc3Cc3ccccc3C2C1` (configuration not stated) [MIANSERIN], for which the “Bacterial Biotransformation” value in data set [1], in data set [2], in data set [3], in data set [4] and in data set [5] was “Compound NOT metabolized” throughout.

As for `C[C@H]1O[C@@H](O[C@H]2[C@@H](O)C[C@H](O[C@H]3[C@@H](O)C[C@H](O[C@H]4CC[C@@]5(C)[C@H](CC[C@@H]6[C@@H]5C[C@@H](O)[C@]5(C)[C@@H](C7=CC(=O)OC7)CC[C@]65O)C4)O[C@@H]3C)O[C@@H]2C)C[C@H](O)[C@@H]1O` [DIGOXIN], the “Bacterial Biotransformation” value in data set [1] is “Compound metabolized”; in data set [2], “Compound NOT metabolized”; in data set [3] it was “Compound metabolized”; in data set [4], “Compound metabolized”; in data set [5], “Compound metabolized”.

On to `Cc1ccccc1C(OCCN(C)C)c1ccccc1.O=C(O)CC(O)(CC(=O)O)C(=O)O` (configuration not stated) [ORPHENADRINE CITRATE], for which the “Bacterial Biotransformation” value in data set [1], in data set [2], in data set [3], in data set [4] and in data set [5] was “Compound NOT metabolized” throughout.

Consider `CC(=O)CCCCn1c(=O)c2c(ncn2C)n(C)c1=O` [PENTOXIFYLLINE], for which the “Bacterial Biotransformation” value in data set [1], in data set [2], in data set [3], in data set [4] and in data set [5] was “Compound NOT metabolized” each time.

`CC(C)N(CCC(C(N)=O)(c1ccccc1)c1ccccn1)C(C)C.O=P(O)(O)O` (configuration not stated) [DISOPYRAMIDE PHOSPHATE]: the “Bacterial Biotransformation” value in data set [2], in data set [3] and in data set [4] was “Compound NOT metabolized” throughout.

As to `OC(Cn1cncn1)(Cn1cncn1)c1ccc(F)cc1F` [FLUCONAZOLE], the “Bacterial Biotransformation” value is listed as “Compound NOT metabolized” in data set [6], “Compound metabolized” in data set [1], “Compound NOT metabolized” in data set [2] and “Compound metabolized” in data set [5].

Regarding `COCCCC/C(=N\OCCN)c1ccc(C(F)(F)F)cc1.O=C(O)/C=C\C(=O)O` [FLUVOXAMINE MALEATE], the “Bacterial Biotransformation” value in data set [1] is listed as “Compound NOT metabolized”; in data set [2] it was “Compound NOT metabolized”; in data set [3], “Compound NOT metabolized”; in data set [5], “Compound metabolized”.

`CN(C)CCC=C1c2ccccc2COc2ccccc21` [DOXEPIN]: the “Bacterial Biotransformation” value in data set [1], in data set [2], in data set [3], in data set [4] and in data set [5] was “Compound NOT metabolized” each time.

In the case of `Fc1ccc([C@@H]2CCNC[C@H]2COc2ccc3c(c2)OCO3)cc1` [PAROXETINE], the “Bacterial Biotransformation” value in data set [1] is “Compound NOT metabolized”; in data set [2], “Compound metabolized”; in data set [3], “Compound NOT metabolized”; in data set [4] it was “Compound NOT metabolized”; in data set [5], “Compound NOT metabolized”.

As to `CN1CCC(OC(c2ccccc2)c2ccccc2)CC1`, the “Bacterial Biotransformation” value in data set [1], in data set [2], in data set [3], in data set [4] and in data set [5] was “Compound NOT metabolized” throughout.

With `CCN(CC)C(C)CN1c2ccccc2Sc2ccccc21` (configuration not stated) [ETHOPROPAZINE], the “Bacterial Biotransformation” value in data set [1] is given as “Compound metabolized”; in data set [2], “Compound NOT metabolized”; in data set [3], “Compound NOT metabolized”; in data set [4] it was “Compound NOT metabolized”; in data set [5] it was “Compound metabolized”.

Regarding `O=C1NCC2(CCN(CCc3ccccc3)CC2)O1` [FENSPIRIDE], the “Bacterial Biotransformation” value in data set [1] is listed as “Compound metabolized”; in data set [2], “Compound NOT metabolized”; in data set [4], “Compound metabolized”; in data set [5] it was “Compound metabolized”.

With `O=C(Nc1ccccc1)OCC(CN1CCCCC1)OC(=O)Nc1ccccc1` (configuration not stated) [DIPERODON], the “Bacterial Biotransformation” value in data set [1], in data set [2], in data set [3], in data set [4] and in data set [5] was “Compound NOT metabolized” each time.

On to `CC(C)c1c(CN(C)C(C)Cc2ccccc2)n(C)n(-c2ccccc2)c1=O` (configuration not stated) [FAMPROFAZONE], for which the “Bacterial Biotransformation” value in data set [1], in data set [2], in data set [3], in data set [4] and in data set [5] was “Compound metabolized” throughout.

On to `Cc1ccnc2c1NC(=O)c1cccnc1N2C1CC1` [NEVIRAPINE], for which the “Bacterial Biotransformation” value in data set [2] was “Compound NOT metabolized”; in data set [3], “Compound NOT metabolized”; in data set [4], “Compound metabolized”; in data set [5] it was “Compound NOT metabolized”.

In the case of `CN1CCOC(c2ccccc2)c2ccccc2C1` (configuration not stated) [NEFOPAM], the “Bacterial Biotransformation” value in data set [2], in data set [3], in data set [4] and in data set [5] was “Compound NOT metabolized” each time.

Source of the values: ChEMBL document CHEMBL5303573, “Mapping human microbiome drug metabolism by gut bacteria and their genes” (Nature, 2019).
